Earlier results in patent US12233147B2, “Method for treating keratin material” (Henkel AG & Co. KGaA, priority 2019, dated 2025).

Conditions: 25° C.

Row | SMILES | solubility in water
1 | O=S(=O)([O-])c1ccc(N=Nc2c(O)ccc3ccccc23)cc1.[Na+] [Acid Orange 7, sodium salt of 4-[(2-hydroxy-1-naphthyl)azo]benzene sulphonate] | more than 7 g/L
2 | Nc1cc(S(=O)(=O)[O-])cc2cc(S(=O)(=O)[O-])c(N=Nc3ccccc3)c(O)c12.[Na+].[Na+] [Acid Red 33, diantrium salt of 5-amino-4-hydroxy-3-(phenylazo)-naphthalene-2,7-disulphonate] | 2500 µg/mL
3 | O=C([O-])c1c(Cl)c(Cl)c(Cl)c(Cl)c1-c1c2c(Br)cc(=O)c(Br)c-2oc2c(Br)c(O)cc(Br)c12.O=C([O-])c1c(Cl)c(Cl)c(Cl)c(Cl)c1-c1c2c(Br)cc(=O)c(Br)c-2oc2c(Br)c(O)cc(Br)c12.[Na+].[Na+] [Acid Red 92, disodium salt of 3,4,5,6-tetrachloro-2-(1,4,5,8-tetrabromo-6-hydroxy-3-oxoxanthen-9-yl)benzoic acid] | greater than 10 g/L
4 | O=C([O-])C1=NN(c2ccc(S(=O)(=O)[O-])cc2)C(=O)C1N=Nc1ccc(S(=O)(=O)[O-])cc1.[Na+].[Na+].[Na+] (stereo not shown) [Acid Yellow 23, trisodium salt of 4,5-dihydro-5-oxo-1-(4-sulfophenyl)-4-((4-sulfophenyl)azo)-1H-pyrazole-3-carboxylic acid] | highly soluble in water
